According to patent US20240366612A1, “COMPOUNDS AND METHODS FOR MODULATING NUCLEIC ACID SPLICING” (REMIX THERAPEUTICS INC., priority 2021, published 2024):
pIC50: −log10 of the molar value. Counter-ions that a name gives are not always drawn.

Experiments:
[1] = system: HiBiT-tagged MYB protein in K562 cells; experiment: HiBiT protein abundance assay, MYB; type: cell-based, human; settings: HiBiT-modified K562 cells, 24 hours, luminescence
Outline: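 K562 lines with the endogenous target HiBiT-tagged, seeded in IMDM+1% FBS, got a 10-point 3-fold dilution series (top final 10 μM, DMSO ≤0.25%) for 24 hours at 37° C. Lytic LgBiT luminescence was normalized against unmodified-K562 and DMSO-only controls, and IC50 was interpolated at 50% from a four-parameter logistic fit.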

Target C CJ mRNA = experiment: Gene panel canonical junction qPCR assay, Target C; type: cell-based; settings: Homo sapiens, larger gene panel, read-out: Target C IC50 (decrease in CJ mRNA levels)
Outline: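 A673 or K562 cells treated 24 h with 11-point 3-fold dilutions (top 10 µM, ≤0.25% DMSO) at 37 °C. Canonical exon-junction mRNA measured by probe-based RT-qPCR, normalized to GAPDH, GUSB or PPIA and DMSO (2^−ΔΔCt), converted to percent response over a fixed ΔCt window; IC50 from 4-parameter fit.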

| SMILES | pIC50 [1] | pIC50 (Target C CJ mRNA) |
| --- | --- | --- |
| Cc1cn2cc(-c3nc4sc(C5CCNCC5)cc4c(=O)[nH]3)cc(F)c2n1 [Compound 250, 2-(8-fluoro-2-methylimidazo[1,2-a]pyridin-6-yl)-6-(piperidin-4-yl)thieno[2,3-d]pyrimidin-4(3H)-one] | 6.00 to 7.00 | 6.00 to 7.00 |
| Cc1nc(-c2nc3ncn(C4CCNCC4)c(=O)c3s2)cc2cn(C)nc12 [Compound 251, 2-(2,7-dimethyl-2H-pyrazolo[3,4-c]pyridin-5-yl)-6-(piperidin-4-yl)thiazolo[4,5-d]pyrimidin-7(6H)-one] | 5.00 to 6.00 | < 5.00 |
| Cn1cc2cc(-c3nc4ncn(C5CCNCC5)c(=O)c4s3)c(O)cc2n1 [Compound 253, 2-(6-hydroxy-2-methyl-2H-indazol-5-yl)-6-(piperidin-4-yl)thiazolo[4,5-d]pyrimidin-7(6H)-one, hydrochloride] | 5.00 to 6.00 | 5.00 to 6.00 |
| Cc1cn2cc(-c3nc4sc(C5CCN(C)CC5)cc4c(=O)[nH]3)cc(F)c2n1 [Compound 256, 2-(8-fluoro-2-methylimidazo[1,2-a]pyridin-6-yl)-6-(1-methylpiperidin-4-yl)thieno[2,3-d]pyrimidin-4(3H)-one] | < 5.00 | < 5.00 |
| Cc1cn2nc(-c3nc4sc(N5CCNCC5)nc4c(=O)[nH]3)cc2c(C)n1 [Compound 267] | 6.00 to 7.00 | 6.00 to 7.00 |
| Cc1cn2nc(-c3nc4sc(N5CCN(C)CC5)nc4c(=O)[nH]3)cc2c(C)n1 [Compound 268] | < 5.00 | < 5.00 |
| Cc1cn2cc(-c3cc4ncn(N5CCNCC5)c(=O)c4s3)cc(F)c2n1 [Compound 269, 6-{8-fluoro-2-methylimidazo[1,2-a]pyridin-6-yl}-3-(piperazin-1-yl)thieno[3,2-d]pyrimidin-4-one] | 6.00 to 7.00 | 5.00 to 6.00 |
| Cc1cn2cc(-c3cc4ncn(C5=CCNCC5)c(=O)c4s3)cc(F)c2n1 [Compound 276, 6-{8-fluoro-2-methylimidazo[1,2-a]pyridin-6-yl}-3-(1,2,3,6-tetrahydropyridin-4-yl)thieno[3,2-d]pyrimidin-4-one] | 6.00 to 7.00 | 6.00 to 7.00 |
| Cc1cn2cc(N3CCc4cc(C5CCNCC5)sc4C3=O)cc(F)c2n1 [Compound 800, 6-[8-fluoro-2-methylimidazo[1,2-a]pyridin-6-yl]-2-(piperidin-4-yl)-4H,5H-thieno[2,3-c]pyridin-7-one] | < 5.00 | < 5.00 |
| Cc1cn2cc(-n3ccc4cc(C5CCNCC5)sc4c3=O)cc(F)c2n1 [Compound 801, 6-[8-fluoro-2-methylimidazo[1,2-a]pyridin-6-yl]-2-(piperidin-4-yl)thieno[2,3-c]pyridin-7-one] | < 5.00 | < 5.00 |
| Cc1cc(-c2cc3cnn(C4CCNCC4)c(=O)c3s2)cc2cn(C)nc12 [Compound 802, 2-(2,7-dimethyl-2H-indazol-5-yl)-6-(piperidin-4-yl)thieno[2,3-d]pyridazin-7(6H)-one] | 6.00 to 7.00 | 6.00 to 7.00 |
| Cc1cc(-c2cc3ccn(C4CCNCC4)c(=O)c3s2)cc2cn(C)nc12 [Compound 805, 2-(2,7-dimethyl-2H-indazol-5-yl)-6-(piperidin-4-yl)thieno[2,3-c]pyridin-7(6H)-one] | 6.00 to 7.00 | 5.00 to 6.00 |
| Cc1cn2cc(-c3cc4ccn(C5CCN(C)CC5)c(=O)c4s3)cc(F)c2n1 [Compound 808, 2-(8-fluoro-2-methylimidazo[1,2-a]pyridin-6-yl)-6-(1-methylpiperidin-4-yl)thieno[2,3-c]pyridin-7(6H)-one] | 6.00 to 7.00 | 5.00 to 6.00 |
| Cc1cn2nc(-c3cc4ccn(C5CCN(C)CC5)c(=O)c4s3)cc(C)c2n1 [Compound 809] | 5.00 to 6.00 | 5.00 to 6.00 |
| Cc1cn2nc(-c3nc4cnn(C5CCNCC5)c(=O)c4s3)cc(C)c2n1 [Compound 810] | 6.00 to 7.00 | 6.00 to 7.00 |
| Cc1nc(-c2nc3cnn(C4CCNCC4)c(=O)c3s2)cc2cn(C)nc12 [Compound 811] | 5.00 to 6.00 | < 5.00 |

Results, then the compound that gave them:

| pIC50 [1] | pIC50 (Target C CJ mRNA) | SMILES |
| --- | --- | --- |
| 5.00 to 6.00 | < 5.00 | Cc1cn2nc(-c3cc4ncn(C5CCN(C)CC5)c(=O)c4s3)cc(C)c2n1 [Compound 239, 6-(2,8-dimethylimidazo[1,2-b]pyridazin-6-yl)-3-(1-methylpiperidin-4-yl)thieno[3,2-d]pyrimidin-4(3H)-one] |
| 5.00 to 6.00 | 5.00 to 6.00 | Cn1cc2cc(-c3cc4ncn(C5CCNCC5)c(=O)c4s3)cc(F)c2n1 [Compound 257] |
| 6.00 to 7.00 | 5.00 to 6.00 | Cn1cc2cc(-c3cc4ncn(C5CCNCC5)c(=O)c4s3)c(F)cc2n1 [Compound 258] |
| 6.00 to 7.00 | 5.00 to 6.00 | Cn1cc2cc(-c3cc4ncn(C5CCNCC5)c(=O)c4s3)cc(C#N)c2n1 [Compound 259] |
| 5.00 to 6.00 | 5.00 to 6.00 | COc1cc(-c2cc3ncn(C4CCNCC4)c(=O)c3s2)cnn1 [Compound 260] |
| 6.00 to 7.00 | 5.00 to 6.00 | Cc1cn2cc(-c3cc4ncn(C5CCNCC5)c(=O)c4s3)cc(C)c2n1 [Compound 261] |
| 6.00 to 7.00 | 6.00 to 7.00 | Cc1cn2nc(-c3cc4ncn(C5CCNCC5)c(=O)c4s3)cc2c(C)n1 [Compound 262] |
| 5.00 to 6.00 | 5.00 to 6.00 | COc1cc(-c2cc3ncn(C4CCNCC4)c(=O)c3s2)ccn1 [Compound 263] |
| 5.00 to 6.00 | 5.00 to 6.00 | Cc1cn2cc(-c3cc4ncn(C5CCNCC5)c(=O)c4s3)ncc2n1 [Compound 264] |
| 6.00 to 7.00 | 6.00 to 7.00 | Cc1cn2cc(-c3cc4ncn(C5CCN(C)CC5)c(=O)c4s3)cc(F)c2n1 [Compound 265, 6-{8-fluoro-2-methylimidazo[1,2-a]pyridin-6-yl}-3-(1-methylpiperidin-4-yl)thieno[3,2-d]pyrimidin-4-one] |
| 6.00 to 7.00 | 6.00 to 7.00 | Cc1cn2cc(-c3cc4ncn(C5CCNC5)c(=O)c4s3)cc(F)c2n1 (centres unmarked) [Compound 270, 6-{8-fluoro-2-methylimidazo[1,2-a]pyridin-6-yl}-3-(pyrrolidin-3-yl)thieno[3,2-d]pyrimidin-4-one] |
| 5.00 to 6.00 | 5.00 to 6.00 | Cc1nc(-c2cc3ncn(C4CCNCC4)c(=O)c3s2)cc2cn(C)nc12 [Compound 271] |
| < 5.00 | < 5.00 | Cc1cn2cc(-c3cc4ncn(C5CCNCC5(F)F)c(=O)c4s3)cc(F)c2n1 (centres unmarked) [Compound 274, 3-(3,3-difluoropiperidin-4-yl)-6-{8-fluoro-2-methylimidazo[1,2-a]pyridin-6-yl}thieno[3,2-d]pyrimidin-4-one] |
| 6.00 to 7.00 | 6.00 to 7.00 | Cc1cn2cc(-c3cc4ncn(C5CCCNCC5)c(=O)c4s3)cc(F)c2n1 (centres unmarked) [Compound 275, 3-(azepan-4-yl)-6-{8-fluoro-2-methylimidazo[1,2-a]pyridin-6-yl}thieno[3,2-d]pyrimidin-4-one] |
| < 5.00 | < 5.00 | Cc1cn2cc(-c3cc4ncn(C5CNCCC5=O)c(=O)c4s3)cc(F)c2n1 (centres unmarked) [Compound 279, 3-(6-{8-fluoro-2-methylimidazo[1,2-a]pyridin-6-yl}-4-oxothieno [3,2-d]pyrimidin-3-yl)piperidin-4-one] |
| 6.00 to 7.00 | 6.00 to 7.00 | Cc1cn2cc(-c3cc4ccn(C5CCNCC5)c(=O)c4s3)cc(F)c2n1 [Compound 804, 2-(8-fluoro-2-methylimidazo[1,2-a]pyridin-6-yl)-6-(piperidin-4-yl)thieno[2,3-c]pyridin-7(6H)-one] |
| 6.00 to 7.00 | 6.00 to 7.00 | Cc1cn2nc(-c3cc4ccn(C5CCNCC5)c(=O)c4s3)cc(C)c2n1 [Compound 806, 2-(2,8-dimethylimidazo[1,2-b]pyridazin-6-yl)-6-(piperidin-4-yl)thieno[2,3-c]pyridin-7(6H)-one] |
| 6.00 to 7.00 | < 5.00 | Cc1cn2cc(-c3nc4cnn(C5CCNCC5)c(=O)c4s3)nc(C)c2n1 [Compound 812, 2-(2,8-dimethylimidazo[1,2-a]pyrazin-6-yl)-6-(piperidin-4-yl)thiazolo[4,5-d]pyridazin-7(6H)-one] |
